# “And” between values parts separate entries of the source, which are not always exact repeats. Identical values can stand only once. Counter-ions that a name gives are not always drawn.
# Assay: Phase I clinical trial: plasma concentrations after weekly intravenous infusion (pharmacokinetics)
# Assay type: in vivo, human
# Conditions: LLOQ 1 ng/mL; for Plasma Concentrations 2 HR: 2 hr after infusion; for Plasma Concentrations 4 HR: 4 hr after infusion; for Plasma Concentrations 6 HR: 6 hr after infusion; for Plasma Concentrations 12 HR: 12 hr after infusion; for Plasma Concentrations 24 HR: 24 hr after infusion; for Plasma Concentrations EOI: end of infusion; for Plasma Concentrations PREDOSE: Day 15 (third weekly dose)
# Procedure: An open-label, dose-escalating, multiple-dose study to define the safety, tolerability and pharmacokinetics of weekly intravenous administration of (4-Methoxy-phenyl)-methyl-(2-methyl-quinazolin-4-yl)-amine hydrochloride was performed. A dosing schedule (each 4 week cycle) was performed for (4-Methoxy-phenyl)-methyl-(2-methyl-quinazolin-4-yl)-amine hydrochloride weekly for 3 weeks with no infusion on the fourth week of each cycle. Subjects with refractory solid tumors were enrolled in cohorts of 3. During Cycle 1, subjects were hospitalized during each infusion of (4-Methoxy-phenyl)-methyl-(2-methyl-quinazolin-4-yl)-amine hydrochloride and remained for observation and safety evaluation for approximately 24 hours following the end of the infusion. All subjects had continuous telemetry for 2 hours prior to infusion, for 1-2 hour infusion and for 3 hours after the end of the infusion. Any clinically significant electrocardiographic (ECG) wave form abnormality was recorded and prolongation of the monitoring period extended at the discretion of the principal investigator.
# Blood samples were collected prior to dosing, at the end of the infusion, and 1, 2, 4, 6, 12, and 24 hours after the infusion. This sampling schedule occurred on Days 1 and 15 with administration of the first and third doses. Samples were collected into tubes containing EDTA and stored on ice until centrifuged. The plasma was frozen at approximately −20° C. in labeled, plastic tubes, or vials, and tightly capped. The samples were shipped to Myriad Pharmaceuticals, Inc. for analysis of (4-Methoxy-phenyl)-methyl-(2-methyl-quinazolin-4-yl)-amine hydrochloride. Pharmacokinetic analysis was conducted using WinNonlin 4.0®.
# [1] = Day 1, 0.3 mg/m^2 i.v., infusion 1 hr
# [2] = Day 1, 2.1 mg/m^2 i.v., infusion 1 hr, hydrochloride
# [3] = Day 1, 2.7 mg/m^2 i.v., infusion 1 hr, hydrochloride
# [4] = Day 1, 3.3 mg/m^2 i.v., infusion 2 hr, hydrochloride
# [5] = Day 15, 0.3 mg/m^2 i.v., infusion 1 hr
# [6] = Day 15, 1.0 mg/m^2 i.v., infusion 1 hr, hydrochloride
# [7] = Day 15, 1.0 mg/m^2 i.v., infusion 1 hr
# [8] = Day 15, 3.9 mg/m^2 i.v., infusion 2 hr, hydrochloride
structure (smiles),measurement,setting,value
COc1ccc(N(C)c2nc(C)nc3ccccc23)cc1 [(4-Methoxy-phenyl)-methyl-(2-methyl-quinazolin-4-yl)-amine hydrochloride],Plasma Concentrations 1 HR,"Day 1, 0.3 mg/m^2 i.v., infusion 1 hr, 1 hr after infusion, hydrochloride",1.17 ng/mL and 1.25 ng/mL
same,Plasma Concentrations 2 HR,[1],BQL
same,Plasma Concentrations 4 HR,[1],BQL
same,Plasma Concentrations 6 HR,[1],BQL
same,Plasma Concentrations 12 HR,[1],BQL
same,Plasma Concentrations 24 HR,[1],BQL
same,Plasma Concentrations EOI,"Day 1, 0.3 mg/m^2 i.v., infusion 1 hr, hydrochloride",1.77 ng/mL and 1.52 ng/mL and 2.43 ng/mL
same,Plasma Concentrations 24 HR,"Day 1, 1.5 mg/m^2 i.v., infusion 1 hr",BQL
same,Plasma Concentrations 1 HR,"Day 1, 2.1 mg/m^2 i.v., infusion 1 hr, 1 hr after infusion, hydrochloride",5.53 ng/mL and 3.75 ng/mL
same,Plasma Concentrations 2 HR,[2],4.78 ng/mL and 3.94 ng/mL
same,Plasma Concentrations 4 HR,[2],2.69 ng/mL and 2.41 ng/mL
same,Plasma Concentrations 6 HR,[2],1.62 ng/mL and 1.18 ng/mL
same,Plasma Concentrations 24 HR,"Day 1, 2.1 mg/m^2 i.v., infusion 1 hr",BQL
same,Plasma Concentrations 1 HR,"Day 1, 2.7 mg/m^2 i.v., infusion 1 hr, 1 hr after infusion, hydrochloride",4.69 ng/mL
same,Plasma Concentrations 2 HR,[3],4.03 ng/mL and 5.54 ng/mL
same,Plasma Concentrations 4 HR,[3],2.33 ng/mL and 3.91 ng/mL
same,Plasma Concentrations 6 HR,[3],1.68 ng/mL and 3.11 ng/mL
same,Plasma Concentrations EOI,[3],10.42 ng/mL and 11.10 ng/mL and 7.52 ng/mL
same,Plasma Concentrations 2 HR,[4],10.37 ng/mL and 8.81 ng/mL and 5.19 ng/mL
same,Plasma Concentrations EOI,[4],8.67 ng/mL and 11.97 ng/mL and 13.37 ng/mL and 16.77 ng/mL
same,Plasma Concentrations PREDOSE,"0.3 mg/m^2 i.v., infusion 1 hr",BQL
same,Plasma Concentrations PREDOSE,"0.6 mg/m^2 i.v., infusion 1 hr",BQL
same,Plasma Concentrations PREDOSE,"1.0 mg/m^2 i.v., infusion 1 hr",BQL
same,Plasma Concentrations PREDOSE,"1.5 mg/m^2 i.v., infusion 1 hr",BQL
same,Plasma Concentrations PREDOSE,"2.1 mg/m^2 i.v., infusion 1 hr",BQL
same,Plasma Concentrations PREDOSE,"2.7 mg/m^2 i.v., infusion 1 hr",BQL
same,Plasma Concentrations PREDOSE,"3.3 mg/m^2 i.v., infusion 2 hr",BQL
same,Plasma Concentrations 2 HR,[5],BQL
same,Plasma Concentrations 4 HR,[5],BQL
same,Plasma Concentrations 6 HR,[5],BQL
same,Plasma Concentrations 12 HR,[5],BQL
same,Plasma Concentrations 24 HR,[5],BQL
same,Plasma Concentrations 1 HR,"Day 15, 1.0 mg/m^2 i.v., infusion 1 hr, 1 hr after infusion, hydrochloride",2.51 ng/mL
same,Plasma Concentrations 2 HR,[6],2.15 ng/mL
same,Plasma Concentrations 6 HR,[7],BQL
same,Plasma Concentrations 12 HR,[7],BQL
same,Plasma Concentrations 24 HR,[7],BQL
same,Plasma Concentrations EOI,[6],8.27 ng/mL and 7.82 ng/mL
same,Plasma Concentrations 4 HR,"Day 15, 1.5 mg/m^2 i.v., infusion 1 hr, hydrochloride",1.60 ng/mL and 1.40 ng/mL and 1.30 ng/mL
same,Plasma Concentrations 1 HR,"Day 15, 2.1 mg/m^2 i.v., infusion 1 hr, 1 hr after infusion, hydrochloride",6.21 ng/mL and 7.19 ng/mL
same,Plasma Concentrations 4 HR,"Day 15, 2.1 mg/m^2 i.v., infusion 1 hr, hydrochloride",3.79 ng/mL
same,Plasma Concentrations 1 HR,"Day 15, 3.3 mg/m^2 i.v., infusion 1 hr, 1 hr after infusion, hydrochloride",9.00 ng/mL and 17.56 ng/mL and 15.17 ng/mL
same,Plasma Concentrations 1 HR,"Day 15, 3.3 mg/m^2 i.v., infusion 2 hr, 1 hr after infusion, hydrochloride",12.21 ng/mL and 6.40 ng/mL and 7.21 ng/mL
same,Plasma Concentrations 2 HR,"Day 15, 3.3 mg/m^2 i.v., infusion 2 hr, hydrochloride",7.50 ng/mL and 5.52 ng/mL and 4.16 ng/mL
same,Plasma Concentrations 1 HR,"Day 15, 3.9 mg/m^2 i.v., infusion 2 hr, 1 hr after infusion, hydrochloride",10.97 ng/mL and 12.15 ng/mL and 7.79 ng/mL and 9.85 ng/mL
same,Plasma Concentrations 2 HR,[8],8.48 ng/mL and 14.58 ng/mL and 7.36 ng/mL and 8.35 ng/mL
same,Plasma Concentrations 4 HR,[8],9.13 ng/mL and 7.84 ng/mL and 10.17 ng/mL and 6.81 ng/mL
same,Plasma Concentrations 1 HR,"Day 15, 4.5 mg/m^2 i.v., infusion 2 hr, 1 hr after infusion, hydrochloride",17.94 ng/mL and 11.45 ng/mL and 10.03 ng/mL
same,Plasma Concentrations 2 HR,"Day 15, 4.5 mg/m^2 i.v., infusion 2 hr, hydrochloride",14.46 ng/mL and 12.32 ng/mL and 8.11 ng/mL
same,concentration at 1 h after end of infusion,"human, plasma, iv, 0.3 mg/m^2, Day 1, 0.3 mg/m^2 i.v., infusion 1 hr, 1 hr after infusion",1.03 ng/mL

# Reference: patent US20100087457A1, “DOSAGES AND METHODS FOR THE TREATMENT OF CANCER” (Myriad Pharmaceuticals, Inc, priority 2007, published 2010)
